This note sets out measurements from paper PMC12207370, “Macrocyclic Peptide Probes for Immunomodulatory Protein CD59: Potent Modulators of Bacterial Toxin Activity and Antibody‐Dependent Cytotoxicity” (Angewandte Chemie (International Ed. in English), 2025).

The assay has as its target T1, CD59 (Homo sapiens, UniProt P13987).
T1 construct: Recombinant soluble human CD59 with an additional C-terminal cysteine residue
T1 sequence (P13987 26-102 limits assumed): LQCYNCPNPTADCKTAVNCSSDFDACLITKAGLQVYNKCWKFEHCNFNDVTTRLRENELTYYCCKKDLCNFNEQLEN
Put plainly: SPR (Biacore S200) binding to immobilised biotinylated CD59. The text has this:
To identify which of these peptides bound CD59 most tightly, we used a Biacore S200 surface plasmon resonance (SPR) platform to investigate CD59 affinity (Figure 2b), using a known protein binding partner of CD59 (rILYd4) as a benchmark. Four 13‐mer macrocyclic peptides and one 14‐mer macrocyclic peptide were identified with a dissociation constant (K D) lower than that of rILYd4. Considering their fourfold lower molecular weight, these peptides bind with up to 19‐fold greater efficiency compared to rILYd4 (Figure 2b).
Equipment: SPR analysis was performed on a Cytiva Biacore S200. All buffers were prepared using ultra-pure water from a Millipore Elix Q-Gard purification system. Solutions and buffers were filtered with a 0.22 μm filter and degassed prior to use. The assays were performed on Series S streptavidin (SA) sensor chip (Cytiva). PBS-P+ buffer 10X (0.2 M phosphate buffer with 27 mM KCl, 1.37 M NaCl and 0.5% Surfactant P20 (Tween 20)) was used for the preparation of the assay running buffer (PBS-P+ 1X).
Immobilisation of CD59-biotin: Biotinylated CD59 was immobilised on the surface of a SA chip by non-covalent capture (biotin streptavidin interaction) as per the manufacturer’s instructions. The system was initially primed with running buffer and normalised using BIAnormalizing solution (70% (w/w) glycerol) (Cytiva). Before immobilising the protein, the surface was conditioned with three consecutive one-minute injections of 1 M NaCl in 50 mM NaOH. Biotinylated CD59 (0.5 µg/mL in running buffer) was flowed over the protein (active) channel for different contact times to achieve different immobilisation levels (600–1200 RU). After each protein injection, the needle and injection loop were washed using 50% isopropanol in 1 M NaCl and 50 mM NaOH. A reference channel was prepared by similar treatment; however, running buffer alone rather than CD59-biotin in running buffer was flowed over the chip the same way.
Interaction analysis: Multicycle kinetic and affinity approach was used for the analysis of peptides interactions with CD59. Two-fold serial dilutions of each peptide were prepared in running buffer and were flowed over both the ligand and reference channel using a flow rate (30 μL/min) at 25 °C. A zero concentration was added to each analyte series and three cycles of buffer were run between analytes to restore the baseline. The obtained sensorgrams were analysed using the embedded Biacore S200 Evaluation software. The data were normalised by subtracting RU values of the reference channel and zero concentration of the analyte series. Kinetic rate constants (kon and koff) were determined by fitting the normalised data using the built-in Kinetic analysis model (non-linear regression with a 1:1 Langmuir binding model), KD values were then calculated from the two rate constants ([…]). The KD values were determined again by fitting the normalised data using the built-in Affinity analysis model (1:1 Langmuir binding model).
Background: SPR reads the build-up and loss of mass on a sensor chip optically.

Setting [1] is: SPR, immobilized CD59, average of three technical replicates ± SEM, read-out: KD (nM) ± SEM.
Setting [2] is: Ala scan of CP-06, SPR, n = 1, read-out: KD.
Where [3] appears, read: Ala scan of CP-06, SPR, n = 1, read-out: PKD (converted).

Read-outs that look alike come from different tables or passages of the source. Peptide text beside a SMILES is read from it.

Consider `C[C@@H]1NC(=O)[C@H](CO)NC(=O)[C@@H](Cc2ccc(O)cc2)NC(=O)CSC[C@@H](C(N)=O)NC(=O)[C@H](Cc2ccc(O)cc2)NC(=O)[C@H](Cc2ccc(O)cc2)NC(=O)[C@H](CCC(N)=O)NC(=O)[C@H]([C@@H](C)O)NC(=O)[C@H](CCC(N)=O)NC(=O)[C@H](CCCNC(=N)N)NC(=O)[C@H](CC(N)=O)NC(=O)CNC(=O)[C@H](Cc2c[nH]c3ccccc23)NC1=O` [CP-13] (HELM PEPTIDE1{[O=C(C[*:3])[*:2]].[dY].S.A.W.G.N.R.Q.T.Q.Y.Y.C.[am]}$PEPTIDE1,PEPTIDE1,1:R3-14:R3$$$V2.0), for which the Kd under setting [1] turned out to be 10.8 ± 0.7 nM. As for `CC(C)[C@@H]1NC(=O)[C@H](CO)NC(=O)[C@H](CO)NC(=O)[C@H](CCCNC(=N)N)NC(=O)[C@H](CC(N)=O)NC(=O)CNC(=O)[C@H](Cc2c[nH]c3ccccc23)NC(=O)[C@H](C)NC(=O)[C@H](Cc2c[nH]c3ccccc23)NC(=O)[C@H](CO)NC(=O)[C@@H](Cc2ccc(O)cc2)NC(=O)CSC[C@@H](C(N)=O)NC(=O)CNC(=O)[C@H](CCCNC(=N)N)NC1=O` [CP-06-T4A] (HELM PEPTIDE1{[O=C(C[*:3])[*:2]].[dY].S.W.A.W.G.N.R.S.S.V.R.G.C.[am]}$PEPTIDE1,PEPTIDE1,1:R3-15:R3$$$V2.0), under setting [2], the Kd turned out to be 18 nM. Take `CC(C)[C@@H]1NC(=O)[C@H](CO)NC(=O)[C@H](CO)NC(=O)[C@H](CCCNC(=N)N)NC(=O)[C@H](CC(N)=O)NC(=O)[C@H](C)NC(=O)[C@H](Cc2c[nH]c3ccccc23)NC(=O)[C@H]([C@@H](C)O)NC(=O)[C@H](Cc2c[nH]c3ccccc23)NC(=O)[C@H](CO)NC(=O)[C@@H](Cc2ccc(O)cc2)NC(=O)CSC[C@@H](C(N)=O)NC(=O)CNC(=O)[C@H](CCCNC(=N)N)NC1=O` [CP-06-G6A] (HELM PEPTIDE1{[O=C(C[*:3])[*:2]].[dY].S.W.T.W.A.N.R.S.S.V.R.G.C.[am]}$PEPTIDE1,PEPTIDE1,1:R3-15:R3$$$V2.0): the Kd under setting [2] came to 235 nM.

As to `CC(C)[C@@H]1NC(=O)[C@H](CO)NC(=O)[C@H](CO)NC(=O)[C@H](CCCNC(=N)N)NC(=O)[C@H](CC(N)=O)NC(=O)CNC(=O)[C@H](Cc2c[nH]c3ccccc23)NC(=O)[C@H]([C@@H](C)O)NC(=O)[C@H](Cc2c[nH]c3ccccc23)NC(=O)[C@H](CO)NC(=O)[C@H](C)NC(=O)CSC[C@@H](C(N)=O)NC(=O)CNC(=O)[C@H](CCCNC(=N)N)NC1=O` [CP-06-d-Y1A] (HELM PEPTIDE1{[O=C(C[*:3])[*:2]].A.S.W.T.W.G.N.R.S.S.V.R.G.C.[am]}$PEPTIDE1,PEPTIDE1,1:R3-15:R3$$$V2.0), the Kd runs as follows: under setting [2], 668 nM; under setting [3], 676 nM. Besides, the “fold decrease in KD (fold loss in binding affinity)” value (Ala scan vs CP-06, SPR, n = 1, Figure 3b and text) is about 60 fold. For the setting “fold decrease in KD vs CP-06, Ala scan”, the “Fold Change” value is given as 61. Regarding `CC[C@H](C)[C@@H]1NC(=O)[C@H](CCC(N)=O)NC(=O)[C@H](CCCNC(=N)N)NC(=O)[C@H](CC(N)=O)NC(=O)CNC(=O)[C@H](Cc2c[nH]c3ccccc23)NC(=O)[C@H](C)NC(=O)[C@H](CO)NC(=O)[C@@H](Cc2ccc(O)cc2)NC(=O)CSC[C@@H](C(N)=O)NC(=O)[C@H](Cc2ccc(O)cc2)NC(=O)[C@H](Cc2ccc(O)cc2)NC(=O)[C@H](CCC(N)=O)NC1=O` [CP-03] (HELM PEPTIDE1{[O=C(C[*:3])[*:2]].[dY].S.A.W.G.N.R.Q.I.Q.Y.Y.C.[am]}$PEPTIDE1,PEPTIDE1,1:R3-14:R3$$$V2.0), under setting [1], the Kd turned out to be 23.4 ± 0.7 nM. Turning to `CC(C)[C@@H]1NC(=O)[C@H](CO)NC(=O)[C@H](CO)NC(=O)[C@H](CCCNC(=N)N)NC(=O)[C@H](CC(N)=O)NC(=O)CNC(=O)[C@H](Cc2c[nH]c3ccccc23)NC(=O)[C@H]([C@@H](C)O)NC(=O)[C@H](Cc2c[nH]c3ccccc23)NC(=O)[C@H](C)NC(=O)[C@@H](Cc2ccc(O)cc2)NC(=O)CSC[C@@H](C(N)=O)NC(=O)CNC(=O)[C@H](CCCNC(=N)N)NC1=O` [CP-06-S2A] (HELM PEPTIDE1{[O=C(C[*:3])[*:2]].[dY].A.W.T.W.G.N.R.S.S.V.R.G.C.[am]}$PEPTIDE1,PEPTIDE1,1:R3-15:R3$$$V2.0), the Kd under setting [2] is 13 nM.

In the case of `CC(C)[C@@H]1NC(=O)[C@H](CO)NC(=O)[C@H](CO)NC(=O)[C@H](CCCNC(=N)N)NC(=O)[C@H](CC(N)=O)NC(=O)CNC(=O)[C@H](Cc2c[nH]c3ccccc23)NC(=O)[C@H]([C@@H](C)O)NC(=O)[C@H](Cc2c[nH]c3ccccc23)NC(=O)[C@H](CO)NC(=O)[C@@H](Cc2ccc(O)cc2)NC(=O)CSC[C@@H](C(=O)NCC(=O)N[C@@H](CO)C(=O)NCC(=O)N[C@@H](CO)C(=O)NCC(=O)N[C@@H](CO)C(=O)N[C@@H](CCCCN)C(N)=O)NC(=O)CNC(=O)[C@H](CCCNC(=N)N)NC1=O` [CP-06-GSGSGSK] (HELM PEPTIDE1{[O=C(C[*:3])[*:2]].[dY].S.W.T.W.G.N.R.S.S.V.R.G.C.G.S.G.S.G.S.K.[am]}$PEPTIDE1,PEPTIDE1,1:R3-15:R3$$$V2.0), the Kd (SPR, Figure S2T, read-out: KD) was 18 nM. As for `C[C@@H]1NC(=O)[C@H](CO)NC(=O)[C@H](CO)NC(=O)[C@H](CCCNC(=N)N)NC(=O)[C@H](CC(N)=O)NC(=O)CNC(=O)[C@H](Cc2c[nH]c3ccccc23)NC(=O)[C@H]([C@@H](C)O)NC(=O)[C@H](Cc2c[nH]c3ccccc23)NC(=O)[C@H](CO)NC(=O)[C@@H](Cc2ccc(O)cc2)NC(=O)CSC[C@@H](C(N)=O)NC(=O)CNC(=O)[C@H](CCCNC(=N)N)NC1=O` [CP-06-V11A] (HELM PEPTIDE1{[O=C(C[*:3])[*:2]].[dY].S.W.T.W.G.N.R.S.S.A.R.G.C.[am]}$PEPTIDE1,PEPTIDE1,1:R3-15:R3$$$V2.0), the Kd under setting [3] is 30.2 nM.

Consider `CC(C)[C@@H]1NC(=O)[C@H](Cc2ccccc2)NC(=O)[C@@H](Cc2ccc(O)cc2)NC(=O)CSC[C@@H](C(N)=O)NC(=O)CNC(=O)[C@H](CCCNC(=N)N)NC(=O)[C@H]([C@@H](C)O)NC(=O)[C@H](Cc2c[nH]cn2)NC(=O)[C@H](CC(=O)O)NC(=O)[C@H](CCCNC(=N)N)NC(=O)[C@H](CC(N)=O)NC(=O)CNC(=O)[C@H]([C@@H](C)O)NC1=O` [CP-02] (HELM PEPTIDE1{[O=C(C[*:3])[*:2]].[dY].F.V.T.G.N.R.D.H.T.R.G.C.[am]}$PEPTIDE1,PEPTIDE1,1:R3-14:R3$$$V2.0), for which the Kd under setting [1] worked out at 15.3 ± 0.2 nM.

With `CC(C)[C@@H]1NC(=O)[C@H](C)NC(=O)[C@H](CO)NC(=O)[C@H](CCCNC(=N)N)NC(=O)[C@H](CC(N)=O)NC(=O)CNC(=O)[C@H](Cc2c[nH]c3ccccc23)NC(=O)[C@H]([C@@H](C)O)NC(=O)[C@H](Cc2c[nH]c3ccccc23)NC(=O)[C@H](CO)NC(=O)[C@@H](Cc2ccc(O)cc2)NC(=O)CSC[C@@H](C(N)=O)NC(=O)CNC(=O)[C@H](CCCNC(=N)N)NC1=O` [CP-06-S10A] (HELM PEPTIDE1{[O=C(C[*:3])[*:2]].[dY].S.W.T.W.G.N.R.S.A.V.R.G.C.[am]}$PEPTIDE1,PEPTIDE1,1:R3-15:R3$$$V2.0), the Kd under setting [2] came out at 12 nM.

Consider `CC(C)[C@@H]1NC(=O)[C@H](CO)NC(=O)[C@H](C)NC(=O)[C@H](CCCNC(=N)N)NC(=O)[C@H](CC(N)=O)NC(=O)CNC(=O)[C@H](Cc2c[nH]c3ccccc23)NC(=O)[C@H]([C@@H](C)O)NC(=O)[C@H](Cc2c[nH]c3ccccc23)NC(=O)[C@H](CO)NC(=O)[C@@H](Cc2ccc(O)cc2)NC(=O)CSC[C@@H](C(N)=O)NC(=O)CNC(=O)[C@H](CCCNC(=N)N)NC1=O` [CP-06-S9A] (HELM PEPTIDE1{[O=C(C[*:3])[*:2]].[dY].S.W.T.W.G.N.R.A.S.V.R.G.C.[am]}$PEPTIDE1,PEPTIDE1,1:R3-15:R3$$$V2.0), for which the Kd under setting [2] was 22 nM.
